Results as given in PubChem BioAssay (NCI).
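In this assay, cells in 96-well plates receive the compound at five concentrations for 48 hours. Endpoints are linearly interpolated between the surrounding concentrations. At the TGI there is no net growth.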

How the values were obtained:
Experiment in all cases: DTP human tumour cell line panel, 48 h
EKVX NSCLC = system: EKVX NSCLC
SNB-19 CNS = system: SNB-19 CNS
HCC-2998 colon = system: HCC-2998 colon
U251 CNS = system: U251 CNS
IGROV1 ovarian = system: IGROV1 ovarian
RPMI-8226 leukemia = system: RPMI-8226 leukemia
COLO 205 colon = system: COLO 205 colon
SN12C renal = system: SN12C renal
UO-31 renal = system: UO-31 renal
HCT-116 colon = system: HCT-116 colon
OVCAR-5 ovarian = system: OVCAR-5 ovarian
A549 NSCLC = system: A549 NSCLC
OVCAR-3 ovarian = system: OVCAR-3 ovarian
RXF 393 renal = system: RXF 393 renal
MOLT-4 leukemia = system: MOLT-4 leukemia
UACC-62 melanoma = system: UACC-62 melanoma
MDA-MB-231 breast = system: MDA-MB-231 breast
HL-60(TB) leukemia = system: HL-60(TB) leukemia
HT29 colon = system: HT29 colon
MALME-3M melanoma = system: MALME-3M melanoma

SMILES | TGI (EKVX NSCLC) [µM] | TGI (SNB-19 CNS) [µM] | TGI (HCC-2998 colon) [µM] | TGI (U251 CNS) [µM] | TGI (IGROV1 ovarian) [µM] | TGI (RPMI-8226 leukemia) [µM] | TGI (COLO 205 colon) [µM] | TGI (SN12C renal) [µM] | TGI (UO-31 renal) [µM] | TGI (HCT-116 colon) [µM] | TGI (OVCAR-5 ovarian) [µM] | TGI (A549 NSCLC) [µM] | TGI (OVCAR-3 ovarian) [µM] | TGI (RXF 393 renal) [µM] | TGI (MOLT-4 leukemia) [µM] | TGI (UACC-62 melanoma) [µM] | TGI (MDA-MB-231 breast) [µM] | TGI (HL-60(TB) leukemia) [µM] | TGI (HT29 colon) [µM] | TGI (MALME-3M melanoma) [µM]
O=C(O)c1nc2ccc(C(F)(F)F)cc2nc1NCc1ccc(F)cc1 | 68.3 | > 100 | 65.6 | 56.9 | > 100 | > 100 | 44.6 | 35.4 | 7.39 | 29.4 | 42.5 | 42.2 | 33.2 | > 100 | 33.2 | 35.1 | 81.4 | – | – | –
CCOC(=O)c1c(NC(=O)OC)c(C#N)c2n1CCCCC2 | > 100 | > 100 | > 100 | > 100 | > 100 | > 100 | > 100 | – | > 100 | > 100 | – | – | – | > 100 | > 100 | > 100 | 91.7 | > 100 | > 100 | –
CN1CCc2c(sc3ncn(C)c(=N)c23)C1 | > 100 | > 100 | – | > 100 | > 100 | > 100 | > 100 | > 100 | – | > 100 | > 100 | > 100 | > 100 | > 100 | > 100 | > 100 | > 100 | > 100 | > 100 | > 100
Fc1ccc(C(=C2CCN(CCc3ccc4[nH]c(=S)[nH]c4c3)CC2)c2ccc(F)cc2)cc1 | 9.04 | 27.9 | – | 11.3 | 17 | 8.67 | 3.31 | 9.25 | 5.11 | 3.47 | 23 | > 40.5 | 4.23 | 3.49 | > 27.8 | 19 | 15 | 4.63 | 3.82 | 3.89
N#Cc1[nH]c(=S)[nH]c1N | > 100 | > 100 | > 100 | > 100 | > 100 | – | > 100 | > 100 | > 100 | > 100 | > 100 | > 100 | > 100 | > 100 | – | > 100 | – | > 100 | > 100 | > 100
CCCCCC(=O)CCCCCCCC(O)CC(=O)OCC (configuration not stated) | – | > 100 | > 100 | > 100 | > 100 | > 100 | – | > 100 | > 100 | > 100 | > 100 | > 100 | > 100 | – | > 100 | – | > 100 | > 100 | > 100 | > 100
Cc1cc(C)c(C(=O)c2nnc3ccccc3c2N)c(C)c1 | – | > 100 | – | > 100 | 46.7 | > 100 | 30.2 | 38.5 | – | 23.6 | > 100 | > 100 | 36.6 | – | > 100 | 62.1 | 63.8 | 73.4 | 76.8 | –
